{"source": "patent US10227344B2", "about": "“CK2 inhibitors, compositions and methods thereof” (Polaris Pharmaceuticals, Inc., priority 2016, dated 2019)", "format_in_all_cases": "cell-based", "key": {"[1]": {"test_system": "PC3", "assay": "Cancer cell panel, cell viability (resazurin): Prostate, PC3", "conditions": "Homo sapiens, PC-3, 72 hours, single agent, read-out: Example 3 IC50"}, "[2]": {"test_system": "LnCap", "assay": "Cancer cell panel, cell viability (resazurin): Prostate, LnCap", "conditions": "Homo sapiens, 72 hours, single agent, read-out: Example 3 IC50", "experimental": "(§1) Cells were plated in 96-well plates and treated for 72 hours with a serially diluted CK2 inhibitor or anti-cancer drug or their combination. The suspension cell lines were treated right after plating, while the adherent cells were allowed to attach overnight prior to the start of the treatment.\n(§2) Cell viability was determined by adding resazurin to cell cultures and measuring fluorescence with a plate reader. Relative cell viability was calculated by dividing the cell viability signal from a test sample by that of a non-treated control. […] Bliss Independence and Highest Single Agent models were used to determine if there is synergy, additivity or antagonism between the CK2 inhibitor and an anti-cancer drug."}, "[3]": {"test_system": "OVCAR-3", "assay": "Cancer cell panel, cell viability (resazurin): Ovarian, OVCAR-3", "conditions": "Homo sapiens; OVCAR-3 (Ovarian), 72 hours, single agent; read-out: Example 3 IC50"}, "[4]": {"test_system": "A2780", "assay": "Cancer cell panel, cell viability (resazurin): Ovarian, A2780", "conditions": "Homo sapiens, 72 hours, single agent, read-out: Example 3 IC50"}, "[5]": {"test_system": "Caov-3", "assay": "Cancer cell panel, cell viability (resazurin): Ovarian, Caov-3", "conditions": "Homo sapiens; Caov-3 (Ovarian), 72 hours, single agent; read-out: Example 3 IC50", "experimental": "as §1, §2"}, "[6]": {"test_system": "Mia-Paca-2", "assay": "Cancer cell panel, cell viability (resazurin): Pancreatic, Mia-Paca-2", "conditions": "Homo sapiens; Mia-Paca-2 (Pancreatic), 72 hours, single agent; read-out: Example 3 IC50", "experimental": "as §1, §2"}, "[7]": {"test_system": "Panc-1", "assay": "Cancer cell panel, cell viability (resazurin): Pancreatic, Panc-1", "conditions": "Homo sapiens; Panc-1 (Pancreatic), 72 hours, single agent; read-out: Example 3 IC50", "experimental": "as §1, §2"}, "[8]": {"test_system": "HCT116", "assay": "Cancer cell panel, cell viability (resazurin): Colon, HCT116", "conditions": "Homo sapiens, HCT-116, 72 hours, single agent, read-out: Example 3 IC50"}, "[9]": {"test_system": "HT29", "assay": "Cancer cell panel, cell viability (resazurin): Colon, HT29", "conditions": "Homo sapiens, HT-29, 72 hours, single agent, read-out: Example 3 IC50", "experimental": "as §1, §2"}, "[10]": {"test_system": "Colo205", "assay": "Cancer cell panel, cell viability (resazurin): Colon, Colo205", "conditions": "Homo sapiens, COLO 205, 72 hours, single agent, read-out: Example 3 IC50"}, "[11]": {"test_system": "LoVo", "assay": "Cancer cell panel, cell viability (resazurin): Colon, LoVo", "conditions": "Homo sapiens, 72 hours, single agent, read-out: Example 3 IC50", "experimental": "as §1, §2"}, "[12]": {"test_system": "DLD-1", "assay": "Cancer cell panel, cell viability (resazurin): Colon, DLD-1", "conditions": "Homo sapiens; DLD-1 (Colon), 72 hours, single agent; read-out: Example 3 IC50"}, "[13]": {"test_system": "H1299", "assay": "Cancer cell panel, cell viability (resazurin): NSCLC, H1299", "conditions": "Homo sapiens, NCI-H1299, 72 hours, single agent, read-out: Example 3 IC50"}, "[14]": {"test_system": "A549", "assay": "Cancer cell panel, cell viability (resazurin): NSCLC, A549", "conditions": "Homo sapiens, 72 hours, single agent, read-out: Example 3 IC50"}, "[15]": {"test_system": "H1975", "assay": "Cancer cell panel, cell viability (resazurin): NSCLC, H1975", "conditions": "Homo sapiens, NCI-H1975, 72 hours, single agent, read-out: Example 3 IC50"}, "[16]": {"test_system": "H2122", "assay": "Cancer cell panel, cell viability (resazurin): NSCLC, H2122", "conditions": "Homo sapiens, NCI-H2122, 72 hours, single agent, read-out: Example 3 IC50", "experimental": "as §1, §2"}, "[17]": {"test_system": "SkBr-3", "assay": "Cancer cell panel, cell viability (resazurin): Breast, SkBr-3", "conditions": "Homo sapiens, SK-BR-3; SkBr-3 (Breast), 72 hours, single agent; read-out: Example 3 IC50", "experimental": "as §1, §2"}, "[18]": {"test_system": "MDA-MB-453", "assay": "Cancer cell panel, cell viability (resazurin): Breast, MDA-MB-453", "conditions": "Homo sapiens; MDA-MB-453 (Breast), 72 hours, single agent; read-out: Example 3 IC50"}, "[19]": {"test_system": "MDA-MB-231", "assay": "Cancer cell panel, cell viability (resazurin): Breast, MDA-MB-231", "conditions": "Homo sapiens; MDA-MB-231 (Breast), 72 hours, single agent; read-out: Example 3 IC50"}, "[20]": {"test_system": "BT-20", "assay": "Cancer cell panel, cell viability (resazurin): Breast, BT-20", "conditions": "Homo sapiens; BT-20 (Breast), 72 hours, single agent; read-out: Example 3 IC50", "experimental": "as §1, §2"}, "[21]": {"test_system": "BT-474", "assay": "Cancer cell panel, cell viability (resazurin): Breast, BT-474", "conditions": "Homo sapiens; BT-474 (Breast), 72 hours, single agent; read-out: Example 3 IC50"}, "[22]": {"test_system": "MCF7", "assay": "Cancer cell panel, cell viability (resazurin): Breast, MCF7", "conditions": "Homo sapiens, 72 hours, single agent, read-out: Example 3 IC50", "experimental": "as §1, §2"}, "[23]": {"test_system": "Caki-1", "assay": "Cancer cell panel, cell viability (resazurin): Renal, Caki-1", "conditions": "Homo sapiens; Caki-1 (Renal), 72 hours, single agent; read-out: Example 3 IC50", "experimental": "as §1, §2"}, "[24]": {"test_system": "Caki-2", "assay": "Cancer cell panel, cell viability (resazurin): Renal, Caki-2", "conditions": "Homo sapiens; Caki-2 (Renal), 72 hours, single agent; read-out: Example 3 IC50"}, "[25]": {"test_system": "A375", "assay": "Cancer cell panel, cell viability (resazurin): Melanoma, A375", "conditions": "Homo sapiens, A-375, 72 hours, single agent, read-out: Example 3 IC50"}, "[26]": {"test_system": "SK-MEL-3", "assay": "Cancer cell panel, cell viability (resazurin): Melanoma, SK-MEL-3", "conditions": "Homo sapiens, SK-MEL3; SK-MEL-3 (Melanoma), 72 hours, single agent; read-out: Example 3 IC50", "experimental": "as §1, §2"}, "[27]": {"test_system": "SK-MEL-24", "assay": "Cancer cell panel, cell viability (resazurin): Melanoma, SK-MEL-24", "conditions": "Homo sapiens; SK-MEL-24 (Melanoma), 72 hours, single agent; read-out: Example 3 IC50", "experimental": "as §1, §2"}, "[28]": {"test_system": "WM-115", "assay": "Cancer cell panel, cell viability (resazurin): Melanoma, WM-115", "conditions": "Homo sapiens; WM-115 (Melanoma), 72 hours, single agent; read-out: Example 3 IC50"}, "[29]": {"test_system": "MeWO", "assay": "Cancer cell panel, cell viability (resazurin): Melanoma, MeWO", "conditions": "Homo sapiens, 72 hours, single agent, read-out: Example 3 IC50", "experimental": "as §1, §2"}, "[30]": {"test_system": "U266", "assay": "Cancer cell panel, cell viability (resazurin): multiple myeloma, U266", "conditions": "Homo sapiens, U-266, 72 hours, single agent, read-out: Example 3 IC50", "experimental": "as §1, §2"}, "[31]": {"test_system": "Ramos", "assay": "Cancer cell panel, cell viability (resazurin): Burkitt's Lymphoma, Ramos", "conditions": "Homo sapiens, 72 hours, single agent, read-out: Example 3 IC50", "experimental": "as §1, §2"}, "[32]": {"test_system": "Daudi", "assay": "Cancer cell panel, cell viability (resazurin): Burkitt's Lymphoma, Daudi", "conditions": "Homo sapiens, 72 hours, single agent, read-out: Example 3 IC50"}, "[33]": {"test_system": "NAMALWA", "assay": "Cancer cell panel, cell viability (resazurin): Burkitt's Lymphoma, NAMALWA", "conditions": "72 hours, single agent, read-out: Example 3 IC50", "experimental": "as §1, §2"}, "[34]": {"test_system": "K562", "assay": "Cancer cell panel, cell viability (resazurin): Leukemia, K562", "conditions": "Homo sapiens, 72 hours, single agent, read-out: Example 3 IC50"}, "[35]": {"test_system": "HL60", "assay": "Cancer cell panel, cell viability (resazurin): Leukemia, HL60", "conditions": "Homo sapiens, HL-60, 72 hours, single agent, read-out: Example 3 IC50"}, "[36]": {"test_system": "EOL-1", "assay": "Cancer cell panel, cell viability (resazurin): Leukemia, EOL-1", "conditions": "Homo sapiens, EOL1; EOL-1 (Leukemia), 72 hours, single agent; read-out: Example 3 IC50"}, "[37]": {"test_system": "MOLT4", "assay": "Cancer cell panel, cell viability (resazurin): Leukemia, MOLT4", "conditions": "Homo sapiens, MOLT-4, 72 hours, single agent, read-out: Example 3 IC50"}}, "data": [{"smiles": "C[S@+]([O-])Cc1cc(Nc2cc(NC3CC3)n3ncc(C#N)c3n2)ccc1Cl", "note": "[Example 3, (S)(+)-5-((4-Chloro-3-((methylsulfinyl)methyl)phenyl)amino)-7-(cyclopropylamino)pyrazolo[1,5-a]pyrimidine-3-carbonitrile]", "values": [{"measurement": "IC50", "setting": "[1]", "result": 112, "unit": "nM"}, {"measurement": "IC50", "setting": "[2]", "result": 420, "unit": "nM"}, {"measurement": "IC50", "setting": "[3]", "result": 42, "unit": "nM"}, {"measurement": "IC50", "setting": "[4]", "result": 527, "unit": "nM"}, {"measurement": "IC50", "setting": "[5]", "result": 50, "unit": "nM"}, {"measurement": "IC50", "setting": "[6]", "result": 253, "unit": "nM"}, {"measurement": "IC50", "setting": "[7]", "result": 539, "unit": "nM"}, {"measurement": "IC50", "setting": "[8]", "result": 356, "unit": "nM"}, {"measurement": "IC50", "setting": "[9]", "result": 197, "unit": "nM"}, {"measurement": "IC50", "setting": "[10]", "result": 1120, "unit": "nM"}, {"measurement": "IC50", "setting": "[11]", "result": 170, "unit": "nM"}, {"measurement": "IC50", "setting": "[12]", "result": 572, "unit": "nM"}, {"measurement": "IC50", "setting": "[13]", "result": 246, "unit": "nM"}, {"measurement": "IC50", "setting": "[14]", "result": 1670, "unit": "nM"}, {"measurement": "IC50", "setting": "[15]", "result": 387, "unit": "nM"}, {"measurement": "IC50", "setting": "[16]", "result": 227, "unit": "nM"}, {"measurement": "IC50", "setting": "[17]", "result": 228, "unit": "nM"}, {"measurement": "IC50", "setting": "[18]", "result": 148, "unit": "nM"}, {"measurement": "IC50", "setting": "[19]", "result": 567, "unit": "nM"}, {"measurement": "IC50", "setting": "[20]", "result": 98, "unit": "nM"}, {"measurement": "IC50", "setting": "[21]", "result": 338, "unit": "nM"}, {"measurement": "IC50", "setting": "[22]", "result": 1820, "unit": "nM"}, {"measurement": "IC50", "setting": "[23]", "result": 171, "unit": "nM"}, {"measurement": "IC50", "setting": "[24]", "result": 669, "unit": "nM"}, {"measurement": "IC50", "setting": "[25]", "result": 218, "unit": "nM"}, {"measurement": "IC50", "setting": "[26]", "result": 429, "unit": "nM"}, {"measurement": "IC50", "setting": "[27]", "result": 1410, "unit": "nM"}, {"measurement": "IC50", "setting": "[28]", "result": 286, "unit": "nM"}, {"measurement": "IC50", "setting": "[29]", "result": 263, "unit": "nM"}, {"measurement": "IC50", "setting": "[30]", "result": "> 10000", "unit": "nM"}, {"measurement": "IC50", "setting": "[31]", "result": 312, "unit": "nM"}, {"measurement": "IC50", "setting": "[32]", "result": 217, "unit": "nM"}, {"measurement": "IC50", "setting": "[33]", "result": 206, "unit": "nM"}, {"measurement": "IC50", "setting": "[34]", "result": 463, "unit": "nM"}, {"measurement": "IC50", "setting": "[35]", "result": 261, "unit": "nM"}, {"measurement": "IC50", "setting": "[36]", "result": 138, "unit": "nM"}, {"measurement": "IC50", "setting": "[37]", "result": 420, "unit": "nM"}]}]}
